Assay results: PubChem BioAssay AID720512 (Broad Institute, 2013)
The source made the active and inactive calls. No rule for the calls is given here.

Molecular target: Toxin B (TcdB) glycohydrolase, Clostridioides difficile 630
Assay: TcdB glycohydrolase inhibitors, dose response, biochemical, cherry-pick, plate reader (AID 720512)
Conditions: recombinant TcdB glycohydrolase activity

Compound: CCOC(=O)c1ccc[n+](CC(=O)c2ccc(NC(=O)c3ccccc3)cc2)c1
- activity change, negative = inhibition (at 19.5 µM (top of the series)): inactive

Compound: CC(=O)N(C)C[C@@H]1Oc2cc(/C=C/c3ccccc3)ccc2S(=O)(=O)N([C@H](C)CO)C[C@@H]1C
- AC50: > 39 µM (inactive)

Compound: COc1ccc(/C=N/n2c(-c3cc(C)[nH]n3)n[nH]c2=S)cc1OC
- activity change, negative = inhibition (at 19.5 µM (top of the series)): inactive

Compound: Cc1ccc(C)c(CN2C(=O)COc3ccc(C(=O)c4ccccc4C(=O)O)cc32)c1
- activity change, negative = inhibition (at 19.5 µM (top of the series)): inactive

Compound: CN(C)CCNc1cccc2sc3ccc(O)cc3c(=O)c12
- AC50: 12.4 µM

Compound: CCCNC(=O)C[C@H]1CC[C@@H]2[C@@H](COc3ccc(NC(=O)c4ccc(Cl)cc4)cc3C(=O)N2C)O1
- AC50: > 39 µM (inactive)

Compound: COc1ccccc1/C=C/c1onc(C)c1S(=O)(=O)N1CCC(C(=O)NC(C)C)CC1
- activity change, negative = inhibition (at 19.5 µM (top of the series)): inactive

Compound: CN1c2ccc(-c3ccccc3)cc2[C@H]2[C@H](CCN2C(=O)CN2CCOCC2)[C@H]1CO
- AC50: > 39 µM (inactive)

Compound: COc1c2ccc(C(=O)NCCCCc3ccccc3)cc2nn1C
- activity change, negative = inhibition (at 19.5 µM (top of the series)): inactive

Compound: C[C@H](CO)N1C[C@H](C)[C@@H](CN(C)C(=O)Nc2ccc(C(F)(F)F)cc2)Oc2c(NS(=O)(=O)c3cn(C)cn3)cccc2C1=O
- activity change, negative = inhibition (at 19.5 µM (top of the series)): inactive

Compound: CS(=O)(=O)N(CC(=O)Nc1ccc(S(=O)(=O)N2CCOCC2)cc1)c1ccccc1Br
- activity change, negative = inhibition (at 19.5 µM (top of the series)): inactive

Compound: C/C(=N\NC(=O)CSc1nc2ccccc2c(=O)n1-c1ccccc1C)c1cccs1
- activity change, negative = inhibition (at 19.5 µM (top of the series)): inactive

Compound: CS(=O)(=O)N1CCc2cc(C(=O)Nc3ccc(O)cc3)ccc21
- activity change, negative = inhibition (at 19.5 µM (top of the series)): inactive

Compound: Cc1ccnc(N2C(=O)c3ccccc3C2=O)c1
- activity change, negative = inhibition (at 19.5 µM (top of the series)): inactive

Compound: Nc1c(Cl)ncnc1NCCc1ccc(O)cc1
- activity change, negative = inhibition (at 19.5 µM (top of the series)): inactive

Compound: COc1ccc(-c2csc(NC(=O)c3ccccc3F)c2C(=O)O)cc1
- activity change, negative = inhibition (at 19.5 µM (top of the series)): inactive

Compound: Cc1ccc(C(=O)NC(=O)OCCn2c(C)cnc2[N+](=O)[O-])cc1
- activity change, negative = inhibition (at 19.5 µM (top of the series)): inactive

Compound: CCN(CC)CCNC(=O)C1CCN(S(=O)(=O)c2c(C)noc2/C=C/c2ccccc2F)CC1
- activity change, negative = inhibition (at 19.5 µM (top of the series)): inactive

Compound: Cc1cc(/C=C(\C#N)C(=O)N2CCCCC2)cc(C)c1O
- activity change, negative = inhibition (at 19.5 µM (top of the series)): inactive

Compound: Cc1ccc(CNC(=O)Nc2cccc(C)c2)cc1
- activity change, negative = inhibition (at 19.5 µM (top of the series)): inactive

Compound: CCCCn1c(=S)[nH]c2c(=O)n(C)c(=O)n(C)c21
- activity change, negative = inhibition (at 19.5 µM (top of the series)): inactive

Compound: Nn1c(SCc2ccccc2F)nnc1-c1ccccn1
- activity change, negative = inhibition (at 19.5 µM (top of the series)): inactive

Compound: Cc1ccc(NNC(=O)C2CCC2)cc1C
- activity change, negative = inhibition (at 19.5 µM (top of the series)): inactive

Compound: Cc1ccc(C(=O)Nc2ncc([N+](=O)[O-])s2)cc1
- activity change, negative = inhibition (at 19.5 µM (top of the series)): inactive

Compound: CC(=O)Nc1ccc(NC(=O)[C@@H]2CCCN2S(=O)(=O)c2ccc3c(c2)OCCO3)cc1
- activity change, negative = inhibition (at 19.5 µM (top of the series)): inactive

Compound: CCOc1ccccc1NC(=O)CCNS(=O)(=O)c1cccc2nonc12
- activity change, negative = inhibition (at 19.5 µM (top of the series)): inactive

Compound: C[C@H](CO)N1C[C@H](C)[C@@H](CN(C)C(=O)Nc2ccc(C(F)(F)F)cc2)Oc2ccc(NC(=O)C3CCCCC3)cc2C1=O
- activity change, negative = inhibition (at 19.5 µM (top of the series)): inactive

Compound: COc1ccc2nc(NNC(=O)C3COc4ccccc4O3)sc2c1 (stereo not given)
- AC50: 3.04 µM

Compound: C/C(CCc1ccccc1)=N\NC(=O)C1C2CCCCC21 (stereo not given)
- activity change, negative = inhibition (at 19.5 µM (top of the series)): inactive

Compound: COC(=O)c1ccc(OC(=O)c2ccc(OC)cc2)c(OC)c1
- activity change, negative = inhibition (at 19.5 µM (top of the series)): inactive

Compound: COc1cc(/C=C/C(=O)OCC(=O)N(C)Cc2ccccc2)ccc1O
- activity change, negative = inhibition (at 19.5 µM (top of the series)): inactive

Compound: CC(=O)N(c1ccccc1C)S(=O)(=O)c1ccc(Cl)cc1
- activity change, negative = inhibition (at 19.5 µM (top of the series)): inactive

Compound: CC(C)(C)c1cc(Cl)c(O)c(NC(=S)NC(=O)c2cccnc2)c1
- activity change, negative = inhibition (at 19.5 µM (top of the series)): inactive

Compound: O=C(C[C@@H]1CC[C@H]2[C@@H](COC[C@@H](O)CN2C(=O)c2ccccn2)O1)NC1CCC1
- activity change, negative = inhibition (at 19.5 µM (top of the series)): inactive

Compound: COc1cc(/C=N/n2c(-c3ccccc3)n[nH]c2=S)ccc1O
- AC50: > 39 µM (inactive)

Compound: O=C(C[C@@H]1CC[C@H]2[C@@H](COC[C@H](O)CN2C(=O)c2ccccn2)O1)NC1CCC1
- activity change, negative = inhibition (at 19.5 µM (top of the series)): inactive

Compound: CC(=O)Nc1ccc(NC(=O)CN2CCN(c3ccccn3)CC2)cc1
- activity change, negative = inhibition (at 19.5 µM (top of the series)): inactive

Compound: N=C(N)c1ccc(N=Nc2c(O)ccc3c2[nH]c2ccccc23)cc1
- AC50: > 39 µM (inactive)

Compound: COC1=C/C(=C/c2c(N)n3nc(CC(=O)N4CCOCC4)sc3nc2=O)C=CC1=O
- AC50: > 39 µM (inactive)

Compound: COC(=O)C1=C(c2ccc(F)cc2OCc2ccccc2)C[C@@H]2CC[C@H]1N2C(=O)NCCOc1ccccc1
- activity change, negative = inhibition (at 19.5 µM (top of the series)): inactive

Compound: Cn1cc(C(CO)Cc2ccccc2)c2ccccc21 (stereo not given)
- activity change, negative = inhibition (at 19.5 µM (top of the series)): inactive

Compound: O=C(NC(=S)NCc1ccccc1)c1cccnc1
- activity change, negative = inhibition (at 19.5 µM (top of the series)): inactive

Compound: C[C@H]1CN([C@@H](C)CO)C(=O)c2c(c3ccccc3n2C)-c2ccccc2CO[C@H]1CN(C)C
- activity change, negative = inhibition (at 19.5 µM (top of the series)): inactive

Compound: O=c1ccc2cc(O)c(O)cc2o1
- activity change, negative = inhibition (at 19.5 µM (top of the series)): inactive

Compound: COc1ccc2[nH]c3c(=O)n(CCCCC(=O)NCCN4CCCC4)c(=S)[nH]c3c2c1
- activity change, negative = inhibition (at 10 µM (top of the series)): inactive

Compound: COc1cc2nncc(SC)c2cc1OC
- activity change, negative = inhibition (at 19.5 µM (top of the series)): inactive

Compound: CNc1n[nH]c(=S)s1
- activity change, negative = inhibition (at 19.5 µM (top of the series)): inactive

Compound: CC(C(=O)OCC(=O)c1c(N)n(C)c(=O)n(C)c1=O)N1C(=O)c2ccccc2C1=O (stereo not given)
- activity change, negative = inhibition (at 19.5 µM (top of the series)): inactive

Compound: CCCN1CCN(C(=O)C2CCN(S(=O)(=O)c3c(C)noc3/C=C/c3ccc(C)cc3)CC2)CC1
- activity change, negative = inhibition (at 19.5 µM (top of the series)): inactive

Compound: Cc1ccccc1COc1ccc2oc(C)c(C(=O)O)c2c1
- activity change, negative = inhibition (at 19.5 µM (top of the series)): inactive

Compound: CC(N)C(=O)NC(C(=O)N1CCCC1C(=O)NC(c1ccccc1)c1ccccc1)C(C)C (stereo not given)
- activity change, negative = inhibition (at 19.5 µM (top of the series)): inactive

Compound: COc1ccc(CNC(=O)c2cc3c(s2)CN(Cc2ccccc2)C3)cc1
- activity change, negative = inhibition (at 19.5 µM (top of the series)): inactive

Compound: COc1ccccc1N1CC(O)=C(c2nc3ccccc3s2)C1=N
- activity change, negative = inhibition (at 19.5 µM (top of the series)): inactive

Compound: CC1CCCN(C(=S)Nc2ccc(F)cc2)C1 (stereo not given)
- activity change, negative = inhibition (at 19.5 µM (top of the series)): inactive

Compound: Cc1[nH]c(-c2ccc(F)cc2)cc1C(=O)N1CCN(c2ccccc2)CC1
- activity change, negative = inhibition (at 19.5 µM (top of the series)): inactive

Compound: CN(C(=O)Cn1c(=O)oc2cc(S(=O)(=O)N3CCCC3)ccc21)C1CCCCC1
- activity change, negative = inhibition (at 19.5 µM (top of the series)): inactive

Compound: CCOC(=O)N1CCC(c2cc(=O)n3[nH]c(-c4ccccc4)cc3n2)CC1
- activity change, negative = inhibition (at 19.5 µM (top of the series)): inactive

Compound: COc1ccc(SC[C@H](C)CN2CC[C@H](NC(=O)OCc3ccccc3)CCC2=O)cc1
- activity change, negative = inhibition (at 19.5 µM (top of the series)): inactive

Compound: S=C(c1cn(Cc2ccccc2)c2ccccc12)N1CCOCC1
- activity change, negative = inhibition (at 19.5 µM (top of the series)): inactive

Compound: Cc1cc(=O)oc2c(N)c(O)ccc12
- activity change, negative = inhibition (at 19.5 µM (top of the series)): inactive

Compound: O=C(Nc1ccc(O)cc1)/C(=C\c1ccncc1)NC(=O)c1ccccc1
- activity change, negative = inhibition (at 19.5 µM (top of the series)): inactive

Compound: Cc1ccc(-c2cc(C(=O)OC3CCOC3=O)c3ccccc3n2)c(C)c1 (stereo not given)
- activity change, negative = inhibition (at 19.5 µM (top of the series)): inactive

Compound: COc1ccc(C(=O)Nc2cc(Cl)ccc2C(=O)O)cc1
- activity change, negative = inhibition (at 19.5 µM (top of the series)): inactive

Compound: O=[N+]([O-])c1ccc(S(=O)(=O)Nc2nc(-c3ccccc3)cs2)cc1
- activity change, negative = inhibition (at 19.5 µM (top of the series)): inactive

Compound: O=C(NC(=S)NNC(=O)c1ccccc1F)c1cccnc1
- activity change, negative = inhibition (at 19.5 µM (top of the series)): inactive
